ChEMBL document CHEMBL2321809 (J Med Chem, 2013)
Values after ≈ are worked out from the molar mass of the structure shown. Active and inactive are the calls of the source. The rule behind the calls is not given here.

Assays:
[1] = Inhibition of Beta-lactamase SHV-1 K234R protein mutant in Escherichia coli DH10B by Henri-Michaelis-Menten steady state equation analysis
[2] = Inhibition of wild type Beta-lactamase SHV-1 in Escherichia coli DH10B by Henri-Michaelis-Menten steady state equation analysis
Escherichia coli [3] = assay: Binding affinity to wild type Beta-lactamase SHV-1 in Escherichia coli DH10B assessed as melting temperature at 50 uM by circular dichroism analysis
Escherichia coli [4] = assay: Binding affinity to Beta-lactamase SHV-1 K234R protein mutant in Escherichia coli DH10B assessed as melting temperature at 50 uM by circular dichroism analysis
Escherichia coli [5] = assay: Selectivity ratio of Ki for Beta-lactamase SHV-1 in Escherichia coli DH10B to Ki for Beta-lactamase SHV-1 K234R protein mutant in Escherichia coli DH10B
Escherichia coli [6] = assay: Binding affinity to Beta-lactamase SHV-1 K234R protein mutant in Escherichia coli DH10B assessed as change in secondary structure at 50 uM by circular dichroism analysis
Escherichia coli [7] = assay: Binding affinity to wild type Beta-lactamase SHV-1 in Escherichia coli DH10B assessed as change in secondary structure at 50 uM by circular dichroism analysis
Escherichia coli [8] = assay: Ratio of Kcat to Km for Beta-lactamase SHV-1 K234R protein mutant in Escherichia coli DH10B
Escherichia coli [9] = assay: Activity of Beta-lactamase SHV-1 K234R protein mutant in Escherichia coli DH10B by Henri-Michaelis-Menten steady state equation analysis
Escherichia coli [10] = assay: Activity of wild type Beta-lactamase SHV-1 in Escherichia coli DH10B by Henri-Michaelis-Menten steady state equation analysis
Escherichia coli [11] = assay: Ratio of Kcat to Km for wild type Beta-lactamase SHV-1 in Escherichia coli DH10B
Escherichia coli [12] = assay: Antimicrobial activity against Escherichia coli DH10B expressing Beta-lactamase SHV-1 K234R protein mutant by CLSI agar dilution method; format: functional
Escherichia coli [13] = assay: Antimicrobial activity against Escherichia coli DH10B expressing Beta-lactamase SHV-1 K234A protein mutant by CLSI agar dilution method; format: functional
Escherichia coli [14] = assay: Antimicrobial activity against Escherichia coli DH10B by CLSI agar dilution method; format: functional
Escherichia coli [15] = assay: Antimicrobial activity against Escherichia coli DH10B expressing wild type Beta-lactamase SHV-1 by CLSI agar dilution method; format: functional
Escherichia coli [16] = assay: Antimicrobial activity against Escherichia coli DH10B expressing Beta-lactamase SHV-1 K234X protein mutant by CLSI agar dilution method; format: functional
Escherichia coli [17] = assay: Antimicrobial activity against Escherichia coli DH10B expressing Beta-lactamase SHV K234R mutant by CLSI agar dilution method in presence of ampicillin; format: functional
Escherichia coli [18] = assay: Antimicrobial activity against Escherichia coli DH10B expressing wild type Beta-lactamase SHV1 gene by CLSI agar dilution method in presence of ampicillin; format: functional
Escherichia coli [19] = assay: Antimicrobial activity against Escherichia coli DH10B by CLSI agar dilution method in presence of ampicillin; format: functional
Escherichia coli [20] = assay: Antimicrobial activity against Escherichia coli DH10B expressing Beta-lactamase SHV K234X mutant by CLSI agar dilution method in presence of ampicillin; format: functional
Escherichia coli [21] = assay: Antimicrobial activity against Escherichia coli DH10B expressing Beta-lactamase SHV K234A mutant by CLSI agar dilution method in presence of ampicillin; format: functional

With `O=C(Cc1cccs1)N[C@@H](Cc1cccc(C(=O)O)c1)B(O)O` the Ki [1] was 12 nM and the Ki [2] was 460 nM.

For `CCOc1ccc2ccccc2c1C(=O)N[C@@H](Cc1cccc(C(=O)O)c1)B(O)O`, the Ki [1] was 48 nM and the Ki [2] was 37 nM.

Compound `N[C@@H](C(=O)N[C@@H](Cc1cccc(C(=O)O)c1)B(O)O)c1ccccc1` has a Tm (Escherichia coli [3]) of 61.4 °C, a Tm (Escherichia coli [4]) of 54.8 °C and a Ratio Ki (Escherichia coli [5]) of 20. For the same compound, the Ki [1] was 2.4 nM and the Ki [2] was 56 nM.

`CCN1CCN(C(=O)N[C@@H](C(=O)N[C@@H](Cc2cccc(C(=O)O)c2)B(O)O)c2ccc(O)cc2)C(=O)C1=O` showed a Ki [1] of 13.5 nM and a Ki [2] of 9.3 nM.

In the case of `O=C(Cc1cccs1)NCB(O)O`, the Tm (Escherichia coli [3]) is reported as 55.1 °C, the inhibition (Escherichia coli [6]) is reported as “inactive” and the inhibition (Escherichia coli [7]) is reported as “Active”. The Tm (Escherichia coli [4]) was 48.9 °C, the Ki [1] was 61000 nM and the Ki [2] was 20000 nM.

With `O=C(Cc1cccs1)N[C@@H]1C(=O)N2C(C(=O)O)=C(/C=C/c3ccc([N+](=O)[O-])cc3[N+](=O)[O-])CS[C@H]12` the kcat/Km (Escherichia coli [8]) was 4.3e+06 M⁻¹ s⁻¹, the Km (Escherichia coli [9]) was 10.4 µM and the kcat (Escherichia coli [9]) was 45.2 s⁻¹. The Km (Escherichia coli [10]) was 24.7 µM, the kcat (Escherichia coli [10]) was 348 s⁻¹ and the kcat/Km (Escherichia coli [11]) was 1.41e+07 M⁻¹ s⁻¹.

`CC1(C)S[C@@H]2[C@H](NC(=O)[C@H](N)c3ccccc3)C(=O)N2[C@H]1C(=O)O` [AMPICILLIN] gave an MIC (Escherichia coli [12]) of 16400 µg/mL (≈ 46900 µM), an MIC (Escherichia coli [13]) of 32 µg/mL (≈ 91.6 µM) and an MIC (Escherichia coli [14]) of 1 µg/mL (≈ 2.86 µM). For the same compound, the MIC (Escherichia coli [15]) was over 16400 µg/mL and the MIC (Escherichia coli [16]) was 4 µg/mL (≈ 11.4 µM).

In the case of `CC(=O)OCC1=C(C(=O)O)N2C(=O)[C@@H](NC(=O)Cc3cccs3)[C@H]2SC1` [CEPHALOTHIN], the MIC (Escherichia coli [12]) is reported as 16 µg/mL (≈ 40.4 µM), the MIC (Escherichia coli [13]) is reported as 8 µg/mL (≈ 20.2 µM) and the MIC (Escherichia coli [14]) is reported as 2 µg/mL (≈ 5.04 µM). The Km (Escherichia coli [9]) was 29 µM, the MIC (Escherichia coli [15]) was 256 µg/mL (≈ 646 µM) and the Km (Escherichia coli [10]) was 48.9 µM. For the same compound, the kcat (Escherichia coli [10]) was 42.6 s⁻¹, the kcat/Km (Escherichia coli [11]) was 870000 M⁻¹ s⁻¹ and the MIC (Escherichia coli [16]) was 8 µg/mL (≈ 20.2 µM).

With `O=C(O)[C@H]1/C(=C/CO)O[C@@H]2CC(=O)N21` [CLAVULANIC ACID] the Tm (Escherichia coli [3]) was 55 °C, the MIC (Escherichia coli [17]) was 16 µg/mL and the inhibition (Escherichia coli [6]) was “Active”. The inhibition (Escherichia coli [7]) was “Active”, the Tm (Escherichia coli [4]) was 46.1 °C and the MIC (Escherichia coli [18]) was 4 µg/mL. The MIC (Escherichia coli [19]) was under 0.06 µg/mL.

Compound `CCN1CCN(C(=O)N[C@@H](C(=O)N[C@@H]2C(=O)N3[C@@H]2SC(C)(C)[C@@H]3C(=O)O)c2ccccc2)C(=O)C1=O` [PIPERACILLIN] has an MIC (Escherichia coli [12]) of 2050 µg/mL (≈ 3960 µM), an MIC (Escherichia coli [13]) of 8 µg/mL (≈ 15.5 µM) and an MIC (Escherichia coli [14]) of 1 µg/mL (≈ 1.93 µM). For the same compound, the Km (Escherichia coli [9]) was 305 µM, the MIC (Escherichia coli [15]) was over 4100 µg/mL and the Km (Escherichia coli [10]) was 74.6 µM. It also gave a kcat (Escherichia coli [10]) of 1180 s⁻¹, a kcat/Km (Escherichia coli [11]) of 1.58e+07 M⁻¹ s⁻¹ and an MIC (Escherichia coli [16]) of 4 µg/mL (≈ 7.73 µM).

For `CC1(C)[C@H](C(=O)O)N2C(=O)C[C@H]2S1(=O)=O` [SULBACTAM], the Tm (Escherichia coli [3]) was 54.4 °C, the MIC (Escherichia coli [17]) was 64 µg/mL and the MIC (Escherichia coli [20]) was under 0.06 µg/mL. The inhibition (Escherichia coli [6]) was “inactive”, the inhibition (Escherichia coli [7]) was “Active” and the MIC (Escherichia coli [21]) was under 0.06 µg/mL. For the same compound, the MIC (Escherichia coli [18]) was 512 µg/mL and the MIC (Escherichia coli [19]) was under 0.06 µg/mL.

With `C[C@]1(Cn2ccnn2)[C@H](C(=O)O)N2C(=O)C[C@H]2S1(=O)=O` [TAZOBACTAM] the Tm (Escherichia coli [3]) was 54.4 °C, the MIC (Escherichia coli [17]) was 16 µg/mL and the MIC (Escherichia coli [20]) was under 0.06 µg/mL. The inhibition (Escherichia coli [6]) was “inactive”, the inhibition (Escherichia coli [7]) was “Active” and the MIC (Escherichia coli [21]) was under 0.06 µg/mL. The Tm (Escherichia coli [4]) was 49 °C, the MIC (Escherichia coli [18]) was 128 µg/mL and the MIC (Escherichia coli [19]) was under 0.06 µg/mL.
